“Also recorded” adds a separate entry of the source.
Columns and labels:
[1] = tested on: human PBMCs; experiment: HMGB1-induced pCTS-L secretion, Western blot; type: cell-based; details: P2–1 5 or 10 μg/ml, HMGB1 0.5 or 2.0 μg/ml, 16 h, n = 4 independent experiments
Procedure: Human blood was purchased from the New York Blood Center (Long Island City, NY, USA), and PBMCs were isolated by density gradient centrifugation through Ficoll (Ficoll-Paque PLUS) as previously described,[30]. PBMCs were cultured in RPMI-1640 supplemented with 10% human serum, 2 mM L-glutamine, 100 U/mL penicillin, and 100 μg/mL streptomycin (all from Invitrogen). For experiments, PBMCs were stimulated with recombinant human HMGB1 (0.5 or 2.0 μg/ml) for 16 hours, either alone or in combination with P2–1 at 5.0 or 10.0 μg/ml. Cell-free supernatants were collected for analysis of cytokines/chemokines levels by Cytokine Antibody Arrays, or pCTS-L levels by Western blotting analysis as described.
Cell-conditioned medium from human PBMC cultures was collected, and concentrated using Amicon Ultra Centrifugal Filters. Equal volumes of conditioned medium, representing equivalent numbers of cells, were resolved on sodium dodecyl sulfate (SDS)-polyacrylamide gels and transferred to polyvinylidene difluoride (PVDF) membranes. After blocking with 5% nonfat milk in Tris-buffered saline with 0.1% Tween 20 (TBST), membranes were probed with a home-made primary monoclonal antibody against pCTS-L (e.g., mAb2, 1:1000) overnight as previously described. After washing, membranes were incubated with a horseradish peroxidase-conjugated secondary antibody. Protein bands were visualized using enhanced chemiluminescence (ECL) substrate (Pierce) and detected with a chemiluminescence imaging system (e.g., Bio-Rad ChemiDoc MP). The relative levels of specific proteins were determined using the UN-SCAN-IT Gel Analysis Software Version 7.1 (Silk Scientific Inc., Orem, UT, USA) and expressed in arbitrary units (AU).

[2] = tested on: collagen antibody-induced arthritis (CAIA); experiment: CAIA arthritis severity clinical score; type: in vivo, Balb/C mice; details: P2–1 i.p. daily Day 6 to Day 9; male and female mice; vs. saline vehicle
Procedure: (§1) The CAIA model was performed in Balb/C mice (8–10 weeks old) as described previously. On Day 0, mice received i.p. injection of 2 mg anti-collagen II mAb cocktail (α-II, Chondrex, Inc., Redmond, WA). On Day 3, mice received i.p. injection of 30 μg LPS (Escherichia coli O111:B4; Sigma-Aldrich) to activate inflammation and synchronize arthritis onset. Mice were randomized, and therapeutic agents (P2–1 peptide or pCTS-L-neutralizing mAb2) were administered i.p. daily from Day 6 to Day 9. Arthritis severity was scored daily using a clinical scoring system [0 – 4 per paw: 0 = normal; 1 = mild redness and swelling in a single joint type (ankle, wrist, or individual digits); 2 = moderate redness and swelling affecting two joint types; 3 = severe redness and swelling involving across all three joint types; 4 = maximal redness and swelling of the entire paw that obscured joint definition].

[3] = tested on: CAIA-induced mechanical allodynia; experiment: CAIA pain sensitivity, Von Frey filaments; type: in vivo, Balb/C mice; details: P2–1 i.p. daily Day 6 to Day 9; 50% paw withdrawal threshold, up-down method
Procedure: as §1
Mechanical allodynia was assessed using Von Frey filaments (Stoelting Co., Wood Dale, IL) applied to the plantar surface of the hind paws as previously described,[82]. Mice were habituated in individual transparent enclosures on an elevated wire mesh platform. […] The “up-down” method determined the 50% paw withdrawal threshold, defined as the force required to elicit a withdrawal response in 50% of applications.

[4] = water solubility; type: physicochemical
[5] = tested on: CAIA-induced joint tissue cytokines and chemokines; experiment: CAIA joint tissue inflammation, Cytokine Antibody Arrays; type: in vivo, Balb/C mice; details: P2–1, harvested Day 10; for joint tissue inflammation (array overall): representative arrays, four vehicle- and four P2-1-treated mice
Procedure: as §1
Levels of cytokines and chemokines in mouse serum and joint tissue lysates, or human PBMC culture supernatants were determined using murine or human Cytokine Antibody Arrays (e.g., Cat. No. M0308003 or Cat. No. AAH-CYT-3–4, RayBiotech Inc., Norcross, GA, USA) as previously described,[30],[86],[87]. Serum samples were collected from mice at 24 h post-CLP. The soft tissue of the hindpaw and ankle joints was carefully collected using a previously described protocol. Briefly, 0.5 g of fresh soft tissue was cut into 3 mm pieces, and mixed with 400 μL of a hypertonic solution (500 mL PBS with 4.5 g NaCl and 2× protease inhibitor cocktail) in a 10 mL syringe. Mechanical extrusion, involving 30 rapid back-and-forth movements of the plunger, was then performed. The expelled extracellular fluid was collected, immediately aliquoted, and stored at −20°C until analysis. Cell-conditioned medium was collected from PBMC cultures after 16 h of stimulation. Arrays were performed according to the manufacturer’s protocol, followed by chemiluminescent detection and densitometric quantification as previously described,[30].

[6] = tested on: CLP-induced sepsis; experiment: CLP sepsis survival; type: in vivo, Balb/C mice
Procedure: Experimental sepsis was induced in Balb/C mice via cecal ligation and puncture (CLP) as previously described,[30],[37]. […] Briefly, mice were anesthetized intramuscularly with ketamine (75 mg/kg, Henry Schein Animal Health, Dublin, Ohio) and xylazine (10 mg/kg, Sigma-Aldrich) before a midline abdominal incision was made in the lower left abdomen. The cecum was ligated with a 4–0 silk suture at 50% of its length from the distal end, and punctured twice with a 21-gauge needle to induce moderate to severe sepsis. The cecum was returned to the abdominal cavity, and the incision was closed in layers. Approximately 30 min post-CLP, animals received imipenem/cilastatin (0.5 mg/mouse, Primaxin, Merck & Co., Inc.) and 1.0 mL of sterile saline for fluid resuscitation. Animals were randomized to control vehicle and experimental groups, administered P2 or P2–1 intraperitoneally at indicated doses and time points, and monitored for survival rates. To elucidate P2–1’s protective mechanisms, a separate group of Balb/C mice underwent CLP and received P2–1 (1.0 mg/kg) at 2 h and 20 h post-CLP. At 24 h post-CLP, animals were euthanized to collect blood and measure serum cytokines and chemokines using murine Cytokine Antibody Arrays.
All data were first assessed for normality using the Shapiro-Wilk test before applying the appropriate statistical analyses. All data are presented as mean ± standard error of the mean (SEM) unless otherwise specified. For comparison among multiple groups with non-normal (skewed) distribution, the Kruskal-Wallis ANOVA test followed by Dunn’s post-hoc test was used to evaluate statistical differences. Survival curves were analyzed using Kaplan-Meier method and compared using the nonparametric log-rank (Mantel-Cox) test. Statistical significance was defined as a P value less than 0.05.

For “54-TKVH(Nle)KSFLAFQTKT-69 [P2–1, water-soluble derivative of TN peptide P2 with Met to Norleucine and Cys to Ser substitutions]”, the “HMGB1-induced pCTS-L secretion” value [1] was “dose-dependently abrogated HMGB1-induced pCTS-L secretion; also recorded: striking and dose-dependent suppression”, the “HMGB1-induced pCTS-L secretion” value ([1]; listed as P2-1) was “inhibitory effect” and the arthritis severity [2] was “dose-dependently and significantly attenuated”. For the same substance, the “pain sensitivity (paw mechanical withdrawal threshold)” value [3] was “significantly reduced CAIA-induced pain sensitivity by partially restoring paw mechanical withdrawal thresholds”, the water solubility [4] was “good water solubility” and the “joint tissue MIP-1γ/CCL9/10” value [5] was “reduced levels; also recorded: significant reduction”. The “joint tissue VCAM-1” value [5] was “reduced levels; also recorded: significant reduction”, the “joint tissue sTNFRI” value [5] was “reduced levels; also recorded: significant reduction” and the “joint tissue sTNFRII” value [5] was “reduced levels; also recorded: significant reduction”. For the same substance, the “joint tissue inflammation (array overall)” value [5] was “significantly reduced CAIA-induced joint tissue inflammation”, the “joint tissue inflammation (array overall)” value ([5]; listed as P2-1) was “reduction in various inflammatory cytokines and chemokines” and the “animal survival (# of Survivors)” value ([6]; Fig. 2C, P2–1 0.1 mg/kg, delayed administration (24 h and 48 h post-CLP), no asterisk) was 60%. The “survival” value ([6]; P2–1 0.1 mg/kg at 2 h, 20 h, 28 h, 44 h, and 52 h post-CLP, 0.1 mg/kg) was “conferred significant protection against lethal sepsis”, the “animal survival (# of Survivors)” value ([6]; P2–1 0.1 mg/kg i.p. at 2 h, 20 h, 28 h, 44 h, and 52 h post-CLP, P < 0.05 vs. control) was 70% and the “survival” value ([6]; P2–1 1.0 mg/kg, delayed, 24 h and 48 h post-CLP, 1 mg/kg) was “provided potent protection against lethal sepsis; also recorded: rescued mice from lethal sepsis”. The “animal survival (# of Survivors)” value ([6]; delayed, P2–1 1.0 mg/kg i.p. at 24 h and 48 h post-CLP, P < 0.05 vs. vehicle) was 90%.

Source: PMC12458545, “Repurposing a Detrimental Antibody Epitope as Targeted Therapeutics for Sepsis and Rheumatoid Arthritis” (Research Square, 2025)
